The record followed here is patent US8575158B2, “1-phenyl-substituted heterocyclyl derivatives and their use as prostaglandin D2 receptor modulators” (Actelion Pharmaceuticals Ltd., priority 2010, dated 2013).

For the test, the target named is T1, hCRTH2 receptor (Homo sapiens, UniProt Q9Y5Y4).
T1 construct: expressed in transfected cells; host or cells: HEK293
T1 sequence (Q9Y5Y4 1-395): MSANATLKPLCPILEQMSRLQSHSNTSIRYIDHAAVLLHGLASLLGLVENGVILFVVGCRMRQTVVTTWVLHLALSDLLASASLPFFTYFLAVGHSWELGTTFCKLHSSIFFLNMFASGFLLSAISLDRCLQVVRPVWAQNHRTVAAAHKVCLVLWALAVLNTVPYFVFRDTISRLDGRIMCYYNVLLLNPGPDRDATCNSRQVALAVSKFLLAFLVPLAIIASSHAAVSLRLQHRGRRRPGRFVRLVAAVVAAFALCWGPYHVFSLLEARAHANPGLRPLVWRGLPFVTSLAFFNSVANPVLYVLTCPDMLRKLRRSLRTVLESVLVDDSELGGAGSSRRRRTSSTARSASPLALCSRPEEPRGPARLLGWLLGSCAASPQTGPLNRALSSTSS
As to the kind of experiment: Radioligand displacement assay (3H-PGD2) on hCRTH2 receptor membranes. Format: binding. The conditions noted are these: antagonistic activity, 3H-PGD2 radioligand displacement, HEK293-hCRTH2 membranes.

SMILES strings stand for the structures.

As to `O=C(O)COc1ccc(Cl)cc1[C@@H]1c2ccc(F)c(F)c2CCN1C(=O)OCn1ncc2ccccc21` [Example 322, (S)-1-(2-Carboxymethoxy-5-chloro-phenyl)-5,6-difluoro-3,4-dihydro-1H-isoquinoline-2-carboxylic acid indazol-1-ylmethyl ester], the IC50 turned out to be 0.53 nM. As for `O=C(O)COc1ccc(Cl)cc1[C@@H]1c2ccc(F)c(F)c2CCN1C(=O)OCc1noc2ccccc12` [Example 323, (S)-1-(2-Carboxymethoxy-5-chloro-phenyl)-5,6-difluoro-3,4-dihydro-1H-isoquinoline-2-carboxylic acid benzo[d]isoxazol-3-ylmethyl ester], the IC50 turned out to be 1.2 nM. On to `O=C(O)COc1ccc(Cl)cc1[C@@H]1c2ccc(F)cc2CCN1C(=O)OCc1nccs1` [Example 324, (S)-1-(2-Carboxymethoxy-5-chloro-phenyl)-6-fluoro-3,4-dihydro-1H-isoquinoline-2-carboxylic acid thiazol-2-ylmethyl ester], for which the IC50 was determined as 6.26 nM.

As to `Cc1ncsc1CCOC(=O)N1CCc2cc(F)ccc2[C@H]1c1cc(Cl)ccc1OCC(=O)O` [Example 325, (S)-1-(2-Carboxymethoxy-5-chloro-phenyl)-6-fluoro-3,4-dihydro-1H-isoquinoline-2-carboxylic acid 2-(4-methyl-thiazol-5-yl)-ethyl ester], the IC50 turned out to be 21.3 nM. As for `Cc1cnc(COC(=O)N2CCc3cc(F)ccc3[C@H]2c2cc(Cl)ccc2OCC(=O)O)s1` [Example 326, (S)-1-(2-Carboxymethoxy-5-chloro-phenyl)-6-fluoro-3,4-dihydro-1H-isoquinoline-2-carboxylic acid 5-methyl-thiazol-2-ylmethyl ester], the IC50 stood at 8.67 nM.

For `Cc1csc(COC(=O)N2CCc3cc(F)ccc3[C@H]2c2cc(Cl)ccc2OCC(=O)O)n1` [Example 327, (S)-1-(2-Carboxymethoxy-5-chloro-phenyl)-6-fluoro-3,4-dihydro-1H-isoquinoline-2-carboxylic acid 4-methyl-thiazol-2-ylmethyl ester], the IC50 was found to be 3.38 nM. `Cc1ncc(COC(=O)N2CCc3cc(F)ccc3[C@H]2c2cc(Cl)ccc2OCC(=O)O)s1` [Example 328, (S)-1-(2-Carboxymethoxy-5-chloro-phenyl)-6-fluoro-3,4-dihydro-1H-isoquinoline-2-carboxylic acid 2-methyl-thiazol-5-ylmethyl ester]: the half-inhibitory concentration (IC50) came out at 3.2 nM.

`Cc1nc(COC(=O)N2CCc3cc(F)ccc3[C@H]2c2cc(Cl)ccc2OCC(=O)O)cs1` [Example 329, (S)-1-(2-Carboxymethoxy-5-chloro-phenyl)-6-fluoro-3,4-dihydro-1H-isoquinoline-2-carboxylic acid 2-methyl-thiazol-4-ylmethyl ester] had an IC50 of 5.9 nM. For `Cc1cc(COC(=O)N2CCc3cc(F)ccc3[C@H]2c2cc(Cl)ccc2OCC(=O)O)on1` [Example 330, (S)-1-(2-Carboxymethoxy-5-chloro-phenyl)-6-fluoro-3,4-dihydro-1H-isoquinoline-2-carboxylic acid 3-methyl-isoxazol-5-ylmethyl ester], the half-maximal inhibitory concentration (IC50) amounted to 10.6 nM.

In turn, `Cc1conc1COC(=O)N1CCc2cc(F)ccc2[C@H]1c1cc(Cl)ccc1OCC(=O)O` [Example 331, (S)-1-(2-Carboxymethoxy-5-chloro-phenyl)-6-fluoro-3,4-dihydro-1H-isoquinoline-2-carboxylic acid 4-methyl-isoxazol-3-ylmethyl ester] gave an IC50 of 7.29 nM. The IC50 values of the last two molecules are within 1.5-fold of each other. As for `O=C(O)COc1ccc(Cl)cc1[C@@H]1c2ccc(F)cc2CCN1C(=O)OCc1cnccn1` [Example 332, (S)-1-(2-Carboxymethoxy-5-chloro-phenyl)-6-fluoro-3,4-dihydro-1H-isoquinoline-2-carboxylic acid pyrazin-2-ylmethyl ester], the IC50 is 7.65 nM. As for `O=C(O)COc1ccc(Cl)cc1[C@@H]1c2ccc(F)cc2CCN1C(=O)OCc1ccncn1` [Example 333, (S)-1-(2-Carboxymethoxy-5-chloro-phenyl)-6-fluoro-3,4-dihydro-1H-isoquinoline-2-carboxylic acid pyrimidin-4-ylmethyl ester], the IC50 worked out at 45.7 nM.

Molecule `O=C(O)COc1ccc(Cl)cc1[C@@H]1c2ccc(F)cc2CCN1C(=O)OCc1cncnc1` [Example 334, (S)-1-(2-Carboxymethoxy-5-chloro-phenyl)-6-fluoro-3,4-dihydro-1H-isoquinoline-2-carboxylic acid pyrimidin-5-ylmethyl ester] returned an IC50 of 4.95 nM. Take `O=C(O)COc1ccc(Cl)cc1[C@@H]1c2ccc(F)cc2CCN1C(=O)OCCc1ccccc1` [Example 335, (S)-1-(2-Carboxymethoxy-5-chloro-phenyl)-6-fluoro-3,4-dihydro-1H-isoquinoline-2-carboxylic acid phenethyl ester]: the concentration for half-maximal inhibition (IC50) was 13.3 nM. As for `O=C(O)COc1ccc(Cl)cc1[C@@H]1c2ccc(F)cc2CCN1C(=O)OCCc1cccc(F)c1` [Example 336, (S)-1-(2-Carboxymethoxy-5-chloro-phenyl)-6-fluoro-3,4-dihydro-1H-isoquinoline-2-carboxylic acid 2-(3-fluoro-phenyl)-ethyl ester], the IC50 worked out at 11.5 nM. Take `Cn1nccc1COC(=O)N1CCc2cc(F)ccc2[C@H]1c1cc(Cl)ccc1OCC(=O)O` [Example 337, (S)-1-(2-Carboxymethoxy-5-chloro-phenyl)-6-fluoro-3,4-dihydro-1H-isoquinoline-2-carboxylic acid 2-methyl-2H-pyrazol-3-ylmethyl ester]: the half-maximal inhibitory concentration (IC50) was determined as 3.61 nM. This IC50 is about 3.2-fold lower than that of the molecule before. For `Cc1cc(COC(=O)N2CCc3cc(F)ccc3[C@H]2c2cc(Cl)ccc2OCC(=O)O)n(C)n1` [Example 338, (S)-1-(2-Carboxymethoxy-5-chloro-phenyl)-6-fluoro-3,4-dihydro-1H-isoquinoline-2-carboxylic acid 2,5-dimethyl-2H-pyrazol-3-ylmethyl ester], the IC50 was 3.13 nM. With `CCn1nc(C)cc1CCOC(=O)N1CCc2cc(F)ccc2[C@H]1c1cc(Cl)ccc1OCC(=O)O` [Example 339, (S)-1-(2-Carboxymethoxy-5-chloro-phenyl)-6-fluoro-3,4-dihydro-1H-isoquinoline-2-carboxylic acid 2-(2-ethyl-5-methyl-2H-pyrazol-3-yl)-ethyl ester], the IC50 was 11.5 nM. In turn, `Cn1cncc1COC(=O)N1CCc2cc(F)ccc2[C@H]1c1cc(Cl)ccc1OCC(=O)O` [Example 340, (S)-1-(2-Carboxymethoxy-5-chloro-phenyl)-6-fluoro-3,4-dihydro-1H-isoquinoline-2-carboxylic acid 3-methyl-3H-imidazol-4-ylmethyl ester] came in with an IC50 of 5.17 nM. Against the preceding molecule, the IC50 is about 2.2-fold lower. The molecule `Cc1cc(C)n(CCOC(=O)N2CCc3cc(F)ccc3[C@H]2c2cc(Cl)ccc2OCC(=O)O)n1` [Example 341, (S)-1-(2-Carboxymethoxy-5-chloro-phenyl)-6-fluoro-3,4-dihydro-1H-isoquinoline-2-carboxylic acid 2-(3,5-dimethyl-pyrazol-1-yl)-ethyl ester] showed an IC50 of 11.1 nM. The molecule `Cc1cnn(COC(=O)N2CCc3cc(F)ccc3[C@H]2c2cc(Cl)ccc2OCC(=O)O)c1` [Example 342, (S)-1-(2-Carboxymethoxy-5-chloro-phenyl)-6-fluoro-3,4-dihydro-1H-isoquinoline-2-carboxylic acid 4-methyl-pyrazol-1-ylmethyl ester] came in with an IC50 of 17.9 nM. `Cc1nc2ccccc2n1CCOC(=O)N1CCc2cc(F)ccc2[C@H]1c1cc(Cl)ccc1OCC(=O)O` [Example 343] had a half-inhibitory concentration (IC50) of 266 nM. On to `O=C(O)COc1ccc(Cl)cc1[C@@H]1c2ccc(F)cc2CCN1C(=O)OCc1nc2ccccc2s1` [Example 344, (S)-1-(2-Carboxymethoxy-5-chloro-phenyl)-6-fluoro-3,4-dihydro-1H-isoquinoline-2-carboxylic acid benzothiazol-2-ylmethyl ester], for which the IC50 was found to be 37.8 nM. This IC50 is about 7-fold lower than that of the molecule before. As for `O=C(O)COc1ccc(Cl)cc1[C@@H]1c2ccc(F)cc2CCN1C(=O)OCc1nc2ccccc2o1` [Example 345, (S)-1-(2-Carboxymethoxy-5-chloro-phenyl)-6-fluoro-3,4-dihydro-1H-isoquinoline-2-carboxylic acid benzooxazol-2-ylmethyl ester], the IC50 came to 12.4 nM.

`Cn1nc(COC(=O)N2CCc3cc(F)ccc3[C@H]2c2cc(Cl)ccc2OCC(=O)O)c2ccccc21` [Example 346, (S)-1-(2-Carboxymethoxy-5-chloro-phenyl)-6-fluoro-3,4-dihydro-1H-isoquinoline-2-carboxylic acid 1-methyl-1H-indazol-3-ylmethyl ester] yielded a concentration for half-maximal inhibition (IC50) of 1.16 nM. `O=C(O)COc1ccc(Cl)cc1[C@@H]1c2ccc(F)cc2CCN1C(=O)OCn1ncc2ccccc21` [Example 347, (S)-1-(2-Carboxymethoxy-5-chloro-phenyl)-6-fluoro-3,4-dihydro-1H-isoquinoline-2-carboxylic acid indazol-1-ylmethyl ester] had an IC50 of 0.87 nM. The value for `O=C(O)COc1ccc(Cl)cc1[C@@H]1c2ccc(F)cc2CCN1C(=O)OCc1noc2ccccc12` [Example 348, (S)-1-(2-Carboxymethoxy-5-chloro-phenyl)-6-fluoro-3,4-dihydro-1H-isoquinoline-2-carboxylic acid benzo[d]isoxazol-3-ylmethyl ester] was 0.4 nM; that for `O=C(O)COc1ccc(Cl)cc1[C@@H]1c2ccc(F)c(F)c2CCN1C(=O)OCc1ccccc1F` [Example 349, (S)-1-(2-Carboxymethoxy-5-chloro-phenyl)-5,6-difluoro-3,4-dihydro-1H-isoquinoline-2-carboxylic acid 2-fluoro-benzyl ester] was 8.99 nM.
